# Columns and labels:
# Format in all cases: cell-based, human
# EGFR-CD533 expression = assay: Doxycycline induction of EGFR-CD533 mRNA and protein (RNase protection, Northern, 35S-Met labeling)
# Description: The kinetics of EGFR-CD533 induction and its decay after Dox removal were monitored by metabolic labeling with ^35S-Met as described in the text.
# JNK1 = JNK1 immune complex kinase assay
# Protocol: (§1) Immunoprecipitation and Western analysis. For immunochemical analyses, cells frozen at −20° C. were lysed in ice-cold lysis buffer, 25 mM β-glycerophosphate, pH 7.4, 25 mM Tris, pH 7.4, 10% (v/v) glycerol, 1.5 mM EGTA, 0.5 mM EDTA, 1% Triton X-100, 1 mM Na-orthovanadate, 1 mM Na-pyrophosphate, 10 μg/ml aprotinin, 10 μg/ml leupeptin, 1 μm benzamidine, 100 μg/ml PMSF. […] Lysates were incubated with Ab at 4° C. for 3 h, the agarose-Ab immunoprecipitates were washed twice in lysis buffer, once in lysis buffer containing 0.1% Triton X-100, and once in 1× kinase buffer, 25 mM β-glycerophosphate, pH 7.4, 15 mm MgCl2. For Western blot analyses, equal amounts of cellular protein were separated by SDS-PAGE, electroblotted to nitrocellulose, probed with specific Abs against c-Jun protein and c-Jun 0phosphorylated at Ser-63, followed by chemilumescence detection. Expression of Tam 67 in MDA-TR15-EGFR-CD533 cells infected with recombinant adenovirus was determined by Western analysis using a c-Jun Ab specific for the COOH-terminus.
# (§2) Immune complex kinase assays.
# (§3) Aliquots of the assay mixture were placed on P81 paper and non-specific binding of [^32P]-γ-ATP removed by extensive washing in 180 mM phosphoric acid. Incorporation of ^32P into bound MBP substrate was measured by liquid scintillation spectroscopy (Beckman Instruments Inc, Schaumburg, Ill., USA).
# MAPK = MAPK immune complex kinase assay
# Protocol: (§4) Dox at 1 μg/ml was added 48 h prior to radiation exposure and cell harvesting with a medium change to RPMI/0.5% FBS with or without Dox for the final 24 h. This medium was replaced by RPMI/0.5% FBS 2 h prior to treatment.
# as §1, §2, §3
# [1] = test system: MDA-TR15-EGFR-CD533 cells; assay: Repeated radiation exposure (5 x 2 Gy) MTT cell growth assay
# Protocol: MDA-TR15-EGFR-CD533 cells were seeded in RPMI/5% FBS at 1000 or 2000 cells/well in 96-well tissue culture plates for control and radiation experiments, respectively. After cell attachment overnight, 50% of the cultures were exposed to Dox at 1 μg/ml. Within 24 h of Dox exposure, drug-exposed and control cultures were irradiated once-daily with 2 Gy for 5 consecutive days.
# Growth rate analysis. For irradiation and control conditions, 1000 and 500 cells per well of 24-well plates were seeded, respectively. Cells were maintained in RPMI/5FCS without media change throughout the period of the experiment. After 24 h of seeding, 50% of the plates were treated with 10 μM PD98059 for 2 h while negative controls were exposed to equivalent DMSO concentrations of 1 μl/ml in RPMI/5FCS. This was followed by 2 Gy daily radiation exposures for 5 consecutive days; control cells were sham irradiated. […] Growth rates were quantified relative to absorbance at 540 nm on day 1.
# [2] = test system: MDA-TR15-EGFR-CD533 cells; assay: TUNEL assay for apoptosis
# Protocol: TUNEL assay for apoptosis. Cells were placed at a density of 2×10^4 cells into dual well slides and allowed to adhere overnight in RPMI/5FCS. Cells were then exposed, prior to irradiation, for 48 h to Dox or control solute for induction of EGFR-CD533. PD98059 at a final concentration of 10 μM was added 2 h prior to irradiation at 2 Gy. Cells were infected with recombinant Ad-TAM67 for expression of Tam67 for 48 h prior to irradiation. […] Slides were stored at −20° C. until examination by fluorescence microscopy using a fluorescein filter.
# c-Jun = assay: Western blot of c-Jun protein and Ser-63 phosphorylated c-Jun
# Protocol: Immunoprecipitation and Western analysis. For immunochemical analyses, cells frozen at −20° C. were lysed in ice-cold lysis buffer, 25 mM β-glycerophosphate, pH 7.4, 25 mM Tris, pH 7.4, 10% (v/v) glycerol, 1.5 mM EGTA, 0.5 mM EDTA, 1% Triton X-100, 1 mM Na-orthovanadate, 1 mM Na-pyrophosphate, 10 μg/ml aprotinin, 10 μg/ml leupeptin, 1 μm benzamidine, 100 μg/ml PMSF. Insoluble material was removed by centrifugation at 14 000 g for 10 min, and the clarified protein lysates were divided equally for immunoprecipitation with antibodies against JNKI and MAPK using established techniques (Boulton et al., 1990). Lysates were incubated with Ab at 4° C. for 3 h, the agarose-Ab immunoprecipitates were washed twice in lysis buffer, once in lysis buffer containing 0.1% Triton X-100, and once in 1× kinase buffer, 25 mM β-glycerophosphate, pH 7.4, 15 mm MgCl2. For Western blot analyses, equal amounts of cellular protein were separated by SDS-PAGE, electroblotted to nitrocellulose, probed with specific Abs against c-Jun protein and c-Jun 0phosphorylated at Ser-63, followed by chemilumescence detection. Expression of Tam 67 in MDA-TR15-EGFR-CD533 cells infected with recombinant adenovirus was determined by Western analysis using a c-Jun Ab specific for the COOH-terminus.
# EGFR-WT = EGFR-WT Tyr autophosphorylation, immunoprecipitation/Western blot; settings: 2 ng/ml EGF, MDA-TR15-EGFR-CD533 cells without Dox
# Protocol: as §4
# [3] = MCF-TR5-EGFR-CD533 cells, 48 h Dox exposure
# [4] = MDA-TR15-EGFR-CD533 cells, 48 h Dox exposure
# [5] = parental MDA-TR15 cells, Dox 48 h
# [6] = MDA-TR15-EGFR-CD533 cells, basal activity before irradiation, after pretreatment
compound,measurement,setting,value
"C[C@H]1c2cccc(O)c2C(=O)C2=C(O)[C@]3(O)C(=O)C(C(N)=O)=C(O)[C@@H](N(C)C)[C@@H]3[C@@H](O)[C@@H]21 [Dox, doxycycline]",EGFR-CD533 induced,"EGFR-CD533 expression; 1.0 μg/ml Dox, at 24 h, 35S-Met incorporation, MDA-TR15-EGFR-CD533 cells",> 90%
same,EC50,"EGFR-CD533 expression; Homo sapiens, MDA-TR15-EGFR-CD533 cells, 48 h exposure, 0.01-1.0 μg/ml, read-out: Dox concentration giving half maximal response of EGFR-CD533 induction",0.1 µg/mL
same,increase in EGFR-CD533 mRNA levels,EGFR-CD533 expression; [3],5 fold
same,induction of the 110 kD EGFR-CD533 truncated receptor,EGFR-CD533 expression; [3],greater than 20 fold
same,increase in EGFR-CD533 mRNA levels,EGFR-CD533 expression; [4],greater than 30 fold
same,induction of EGFR-CD533 at the protein level,EGFR-CD533 expression; [4],greater than 50 fold
same,JNK1 activity at time=0,JNK1; [5],3500±300 c.p.m.
same,MAPK activity,MAPK; [5],16000±1600 c.p.m.
COc1cccc(-c2cc(=O)c3ccccc3o2)c1N [PD98059],lower cell numbers on day 7 relative to irradiated control cells,"[1]; 5 daily 2 Gy exposures, MTT, day 7 of growth period",5.0 (±0.03) fold
same,inhibition of cell growth / decrease in cell numbers without irradiation,"[1]; un-irradiated, day 7, MTT",25%
same,transient activation of JNK1 without irradiation,"JNK1; 10 μM PD98059, between 5 and 25 min, no radiation",1.35 (±0.02) fold
same,radiation-induced immediate JNK1 activation,"JNK1; 2 Gy, early time points (within 10 min), MDA-TR15-EGFR-CD533 cells",3.9 (±0.1) fold
same,JNK1 activity at time=0,JNK1; [6],3100±200 c.p.m.
same,apoptosis rate after irradiation,[2]; TUNEL 24 h after single 2 Gy,6.3 (±0.1) %
same,basal apoptosis rate,"[2]; TUNEL, without irradiation",3.7 (±0.1) %
same,increase in basal apoptosis rate,"[2]; TUNEL, without irradiation, relative to control",~20%
same,c-Jun protein levels relative to untreated cells,c-Jun; 10 μM PD98059 2 h,more than twofold reduction
same,increase in c-Jun Ser-63 phosphorylation relative to c-Jun protein level,"c-Jun; 10 μM PD98059 pretreatment, 10 min after 2 Gy",41 fold
same,stimulation of c-Jun phosphorylation under MEK1/2 inhibition compared to radiation alone,"c-Jun; PD98059 + 2 Gy, sustained up to 60 min",fivefold greater
same,inhibition of radiation-induced MAPK activation,"MAPK; 10 μm PD98059 pretreatment, 2 Gy, MDA-TR15-EGFR-CD533 cells",> 70%
same,MAPK activity at time=0,MAPK; [6],16900±575 c.p.m.
"EGF: epidermal growth factor, natural ligand of EGFR",activation of EGFR-WT Tyr phosphorylation,EGFR-WT,9.8 fold
